According to US20180200257A1, “METHODS FOR THE TREATMENT OF INFLAMMATORY DISORDERS” (Galapagos NV, priority 2015, published 2018):

Test system: subjects with moderately to severely active RA who have an inadequate response to methotrexate (MTX)
Test: Study 2 (monotherapy) - ACR responses (ACR20/50/70)
Format: in vivo, human
Excerpt: The terms “ACR20”, “ACR50” and “ACR70” as used herein are scores which indicate how much a patient's rheumatoid arthritis has improved according to criteria set out by the American College of Rheumatology (ACR). The ACR score represents a percentage. An ACR20 score means that a person's RA has improved by 20%, an ACR50 score means it has improved by 50%, and an ACR70 score means it has improved by 70%. Specifically, to qualify for an ACR20 score, a person with RA must have at least 20% fewer tender joints and at least 20% fewer swollen joints. In addition the patient must show a 20% improvement in at least three of the following five areas: the person's overall (global) assessment of his or her own RA, the physician's global assessment of the person's RA, the person's assessment of his or her own pain, the person's assessment of his or her own physical functioning, and the results of an erythrocyte sedimentation rate or C-reactive protein (CRP) blood test (both of which test for inflammation). ACR50 and ACR70 scores use the same criteria but require 50% and 70% improvement, respectively, (Felson et al., 1993). In the data presented herein the CRP blood test is used.
Randomized, double-blind, placebo-controlled, multicenter, phase IIb dose finding study of Compound 1 (dosed as a [Compound 1:HCl:3H2O]) administered for 24 weeks as monotherapy to subjects with moderately to severely active rheumatoid arthritis who have an inadequate response to methotrexate alone
Double-blind, placebo-controlled, monotherapy study in subjects with moderately to severely active RA who have an inadequate response to methotrexate (MTX) (oral or parenteral).
280 subjects randomized to one of 3 doses of Compound 1 (dosed as a [Compound 1:HCl:3H2O]) or to placebo, given once daily (q.d.).
Twelve weeks of treatment with Compound 1 (dosed as a [Compound 1:HCl:3H2O]) at 50 mg, 100 mg, or 200 mg q.d.; or placebo. At Week 12, all subjects on placebo and the subjects on the 50 mg dose who have not achieved 20% improvement in swollen joint count (SJC66) and tender joint count (TJC68) will be assigned to 100 mg q.d. in a blinded fashion and will continue treatment until Week 24. Subjects in the other groups will maintain their randomized treatment until Week 24.
The American College of Rheumatology (ACR) composite score, which evaluates clinical improvement relative to an initial assessment, is a commonly accepted efficacy end point for clinical trials in patients with rheumatoid arthritis. The ACR score correspond to a percentage improvement in pre-set parameters, and therefore measures the evolution of the disease in a patient. For example, ACR20 denotes at least 20% improvement in tender and swollen joint counts and in three of the following end points: global assessment by the patient, global assessment by the doctor, C reactive protein (CRP), patient's pain Visual Analogue Scale and Health Assessment Questionnaire Score. The number of swollen joints, ESR and CRP correlate with radiographic progression of joint damage, whereas tender joint counts, as well as global assessments by doctors and patients, and patients' reports of pain, are sensitive to change in clinical outcomes. Physical function, as assessed by the Health Assessment Questionnaire Score, is a potent predictor of the risk of disability in rheumatoid arthritis (Felson and American College of Rheumatology Committee to Reevaluate Improvement Criteria, 2007; Felson et al., 1993).
In particular, the list of parameters used to assess ACR score can be found in the Table XCVI below and the results of the ACR responses at week 12 via either NRI or LOCF are shown in the tables below. The Hommel-corrected p-value for the pairwise comparisons of each group with placebo is shown. […]

[1] = 50 mg q.d., week 1, 12 weeks results
[2] = 50 mg q.d., week 1, 24 weeks results
[3] = 50 mg q.d., week 2, 12 weeks results
[4] = 50 mg q.d., week 2, 24 weeks results
[5] = 50 mg q.d., week 4, 12 weeks results
[6] = 50 mg q.d., week 4, 24 weeks results
[7] = 50 mg q.d., week 12, 12 weeks results
[8] = 50 mg q.d., week 12, 24 weeks results
[9] = 50 mg q.d., week 16, 24 weeks results
[10] = 50 mg q.d., week 20, 24 weeks results
[11] = 50 mg q.d., week 24, 24 weeks results
[12] = 50 mg q.d., week 8, 12 weeks results
[13] = 50 mg q.d., week 8, 24 weeks results
[14] = 100 mg q.d., week 1, 12 weeks results
[15] = 100 mg q.d., week 1, 24 weeks results
[16] = 100 mg q.d., week 2, 12 weeks results
[17] = 100 mg q.d., week 2, 24 weeks results
[18] = 100 mg q.d., week 4, 12 weeks results
[19] = 100 mg q.d., week 4, 24 weeks results
[20] = 100 mg q.d., week 8, 24 weeks results
[21] = 100 mg q.d., week 12, 12 weeks results
[22] = 100 mg q.d., week 12, 24 weeks results
[23] = 100 mg q.d., week 16, 24 weeks results
[24] = 100 mg q.d., week 20, 24 weeks results
[25] = 100 mg q.d., week 24, 24 weeks results
[26] = 100 mg q.d., week 8, 12 weeks results
[27] = 200 mg q.d., week 1, 12 weeks results
[28] = 200 mg q.d., week 1, 24 weeks results
[29] = 200 mg q.d., week 2, 12 weeks results
[30] = 200 mg q.d., week 2, 24 weeks results
[31] = 200 mg q.d., week 4, 12 weeks results
[32] = 200 mg q.d., week 4, 24 weeks results
[33] = 200 mg q.d., week 8, 24 weeks results
[34] = 200 mg q.d., week 12, 12 weeks results
[35] = 200 mg q.d., week 12, 24 weeks results
[36] = 200 mg q.d., week 16, 24 weeks results
[37] = 200 mg q.d., week 20, 24 weeks results
[38] = 200 mg q.d., week 24, 24 weeks results
[39] = 200 mg q.d., week 8, 12 weeks results

O=C(Nc1nc2cccc(-c3ccc(CN4CCS(=O)(=O)CC4)cc3)n2n1)C1CC1 [Compound 1, cyclopropanecarboxylic acid {5-[4-(1,1-dioxo-thiomorpholin-4-ylmethyl)-phenyl]-[1,2,4]triazolo[1,5-a]pyridin-2-yl}-amide]
ACR20 (LOCF) [1]: 20.8
ACR20 (NRI) [1]: 22.2%
ACR50 (LOCF) [1]: 1.4%
ACR50 (NRI) [1]: 1.4%
ACR70 (LOCF) [1]: 0.0%
ACR70 (NRI) [1]: 0.0%
ACR20 (LOCF) [2]: 22.2
ACR20 (NRI) [2]: 22.2%
ACR50 (LOCF) [2]: 1.4%
ACR50 (NRI) [2]: 1.4%
ACR70 (LOCF) [2]: 0.0%
ACR70 (NRI) [2]: 0.0%
ACR20 (LOCF) [3]: 33.3%
ACR20 (NRI) [3]: 34.7%
ACR50 (LOCF) [3]: 5.6%
ACR50 (NRI) [3]: 5.6%
ACR70 (LOCF) [3]: 1.4%
ACR70 (NRI) [3]: 1.4%
ACR20 (LOCF) [4]: 33.3%
ACR20 (NRI) [4]: 33.3%
ACR50 (LOCF) [4]: 5.6%
ACR50 (NRI) [4]: 5.6%
ACR70 (LOCF) [4]: 1.4%
ACR70 (NRI) [4]: 1.4%
ACR20 (LOCF) [5]: 54.2%
ACR20 (NRI) [5]: 54.2%
ACR50 (LOCF) [5]: 13.9%
ACR50 (NRI) [5]: 15.3%
ACR70 (LOCF) [5]: 8.3%
ACR70 (NRI) [5]: 8.3%
ACR20 (LOCF) [6]: 52.8%
ACR20 (NRI) [6]: 52.8%
ACR50 (LOCF) [6]: 15.3%
ACR50 (NRI) [6]: 15.3%
ACR70 (LOCF) [6]: 8.3%
ACR70 (NRI) [6]: 8.3%
ACR50 (NRI) [7]: 36.1%%
ACR70 (NRI) [7]: 8.3%%
ACR50 (NRI) [8]: 34.7%
ACR70 (NRI) [8]: 8.3%
ACR50 (NRI) [9]: 33.3%
ACR70 (NRI) [9]: 15.3%
ACR50 (NRI) [10]: 27.8%
ACR70 (NRI) [10]: 12.5%
ACR50 (NRI) [11]: 31.9%
ACR70 (NRI) [11]: 19.4%
ACR20 (LOCF) [12]: 62.5%
ACR20 (NRI) [12]: 61.1%
ACR50 (LOCF) [12]: 16.7%
ACR50 (NRI) [12]: 16.7%
ACR70 (LOCF) [12]: 6.9%
ACR70 (NRI) [12]: 6.9%
ACR20 (LOCF) [13]: 61.1%
ACR20 (NRI) [13]: 61.1%
ACR50 (LOCF) [13]: 16.7%
ACR50 (NRI) [13]: 16.7%
ACR70 (LOCF) [13]: 6.9%
ACR70 (NRI) [13]: 6.9%
ACR20 (LOCF) [14]: 24.3%
ACR20 (NRI) [14]: 24.3%
ACR50 (LOCF) [14]: 10.0%
ACR50 (NRI) [14]: 10.0%
ACR70 (LOCF) [14]: 1.4%
ACR70 (NRI) [14]: 1.4%
ACR20 (LOCF) [15]: 24.3%
ACR20 (NRI) [15]: 24.3%
ACR50 (LOCF) [15]: 10.0%
ACR50 (NRI) [15]: 10.0%
ACR70 (LOCF) [15]: 1.4%
ACR70 (NRI) [15]: 1.4%
ACR20 (LOCF) [16]: 34.3%
ACR20 (NRI) [16]: 32.9%
ACR50 (LOCF) [16]: 8.6%
ACR50 (NRI) [16]: 7.1%
ACR70 (LOCF) [16]: 1.4%
ACR70 (NRI) [16]: 1.4%
ACR20 (LOCF) [17]: 35.7%
ACR20 (NRI) [17]: 32.9%
ACR50 (LOCF) [17]: 8.6%
ACR50 (NRI) [17]: 7.1%
ACR70 (LOCF) [17]: 1.4%
ACR70 (NRI) [17]: 1.4%
ACR20 (LOCF) [18]: 44.3%
ACR20 (NRI) [18]: 44.3%
ACR50 (LOCF) [18]: 18.6%
ACR50 (NRI) [18]: 18.6%
ACR70 (LOCF) [18]: 5.7%
ACR70 (NRI) [18]: 5.7%
ACR20 (LOCF) [19]: 44.3%
ACR20 (NRI) [19]: 44.3%
ACR50 (LOCF) [19]: 18.6%
ACR50 (NRI) [19]: 18.6%
ACR70 (LOCF) [19]: 5.7%
ACR70 (NRI) [19]: 5.7%
ACR50 (NRI) [20]: 25.7%
ACR70 (NRI) [20]: 11.4%
ACR50 (NRI) [21]: 34.3%%
ACR70 (NRI) [21]: 18.6%%
ACR50 (NRI) [22]: 35.7%
ACR70 (NRI) [22]: 18.6%
ACR50 (NRI) [23]: 38.6%
ACR70 (NRI) [23]: 17.1%
ACR50 (NRI) [24]: 41.4%
ACR70 (NRI) [24]: 24.3%
ACR50 (NRI) [25]: 40.0%
ACR70 (NRI) [25]: 25.7%
ACR20 (LOCF) [26]: 60.0%
ACR20 (NRI) [26]: 61.4%
ACR50 (LOCF) [26]: 25.7%
ACR50 (NRI) [26]: 25.7%
ACR70 (LOCF) [26]: 11.4%
ACR70 (NRI) [26]: 11.4%
ACR20 (LOCF) [27]: 39.1%
ACR20 (NRI) [27]: 39.1%
ACR50 (LOCF) [27]: 7.2%
ACR50 (NRI) [27]: 7.2%
ACR70 (LOCF) [27]: 1.4%
ACR70 (NRI) [27]: 1.4%
ACR20 (LOCF) [28]: 39.1%
ACR20 (NRI) [28]: 39.1%
ACR50 (LOCF) [28]: 7.2%
ACR50 (NRI) [28]: 7.2%
ACR70 (LOCF) [28]: 1.4%
ACR70 (NRI) [28]: 1.4%
ACR20 (LOCF) [29]: 53.6%
ACR20 (NRI) [29]: 56.5%
ACR50 (LOCF) [29]: 21.7%
ACR50 (NRI) [29]: 21.7%
ACR70 (LOCF) [29]: 4.3%
ACR70 (NRI) [29]: 4.3%
ACR20 (LOCF) [30]: 56.5%
ACR20 (NRI) [30]: 56.5%
ACR50 (LOCF) [30]: 21.7%
ACR50 (NRI) [30]: 21.7%
ACR70 (LOCF) [30]: 4.3%
ACR70 (NRI) [30]: 4.3%
ACR20 (LOCF) [31]: 62.3%
ACR20 (NRI) [31]: 63.8%
ACR50 (LOCF) [31]: 23.2%
ACR50 (NRI) [31]: 23.2%
ACR70 (LOCF) [31]: 11.6%
ACR70 (NRI) [31]: 11.6%
ACR20 (LOCF) [32]: 63.8%
ACR20 (NRI) [32]: 62.3%
ACR50 (LOCF) [32]: 23.2%
ACR50 (NRI) [32]: 23.2%
ACR70 (LOCF) [32]: 11.6%
ACR70 (NRI) [32]: 11.6%
ACR50 (NRI) [33]: 33.3%
ACR70 (NRI) [33]: 17.4%
ACR50 (NRI) [34]: 43.5%%
ACR70 (NRI) [34]: 13.0%%
ACR50 (NRI) [35]: 43.5%
ACR70 (NRI) [35]: 13.0%
ACR50 (NRI) [36]: 40.6%
ACR70 (NRI) [36]: 18.8%
ACR50 (NRI) [37]: 44.9%
ACR70 (NRI) [37]: 24.6%
ACR50 (NRI) [38]: 44.9%
ACR70 (NRI) [38]: 24.6%
ACR20 (LOCF) [39]: 72.5%
ACR20 (NRI) [39]: 73.9%
ACR50 (LOCF) [39]: 33.3%
ACR50 (NRI) [39]: 33.3%
ACR70 (LOCF) [39]: 17.4%
ACR70 (NRI) [39]: 17.4%
